The source of these data is US20260206761A1, “HETEROARYL-TRIAZOLE COMPOUNDS AS PESTICIDES” (Bayer Aktiengesellschaft, priority 2019, published 2026).

Holding throughout (format): in vivo
For experiment [1], the system named is Musca domestica strain WHO-N. As to the kind of experiment: Musca domestica test (MUSCDO surface treatment & contact assay). Conditions: surface concentration 4 mg/m^2, exposure 30 minutes, 24 hours after contact, read-out: efficacy (mortality). In a few lines: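 Compound dissolved at 2 mg/ml in acetone with 2000 ppm rapeseed oil methyl ester and pipetted onto a glazed tile. After the acetone evaporated, adult WHO-N flies were exposed to the dried surface for 30 min, with % mortality scored 24 h after contact.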

The test system of experiment [2] is Anopheles funestus strain FUMOZ-R. As to the kind of experiment: Anopheles funestus test (ANPHFU surface treatment & contact assay). Conditions: surface concentration 4 mg/m^2, exposure 30 minutes, 24 hours after contact, read-out: efficacy (mortality). In a few lines: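 Compound dissolved in acetone at 2 mg/ml with 2000 ppm RME, pipetted onto glazed tile; acetone evaporated. Adult FUMOZ-R mosquitoes exposed to dried surface for 30 min. Percent mortality scored 24 h after contact.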

The test system of experiment [3] is brown planthopper (Nilaparvata lugens). As to the kind of experiment: Nilaparvata lugens spray test. Conditions: 96 h, after 4 days. Put shortly:
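Compound dissolved in acetone/dimethylformamide and diluted in water with 1000 ppm alkylarylpolyglycol ether emulsifier. Rice plants sprayed at the test concentration, then infested with brown planthopper; % mortality read after 4 days (100% = all killed, 0% = none).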

Experiment [4] relates to Culex quinquefasciatus strain P00. As to the kind of experiment: Culex quinquefasciatus test (CULXFA surface treatment & contact assay). Conditions: surface concentration 4 mg/m^2, exposure 30 minutes, 24 hours after contact, read-out: efficacy (mortality). In a few lines: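 Compound in acetone (2 mg/ml) with 2000 ppm rapeseed oil methyl ester, dried onto glazed tile. Adult mosquitoes exposed to the treated surface for 30 min. Percent mortality scored 24 h after contact.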

Experiment [5] deals with adult engorged female ticks (Rhipicephalus microplus). Briefly: Rhipicephalus (Boophilus) microplus injection test. To be noted: 168 h, egg deposition after 7 days, read-out: activity (efficacy: infertile eggs). Put shortly: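 Abdominal injection, 1 μL compound/DMSO, n=5 engorged adult females; climate-chamber incubation. Readout d7: fertile egg laying; doubtful eggs held to hatch (~42 d). % efficacy = infertile eggs (100% all infertile).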

Experiment [6] concerns green peach aphid (Myzus persicae). As to the kind of experiment: Myzus persicae oral test. Conditions: 120 h, application rate 4 ppm, after 5 days. Put shortly:
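Readout: % mortality at day 5, where 100% = all aphids dead and 0% = none dead. Feeding via parafilm membrane over compound in IPL41 medium (33%+15% sugar); mixed-age population. Stock in acetone (1:100 w/w), water-diluted.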

The subject of experiment [7] is cattle ticks (Rhipicephalus microplus) strain Parkhurst, SP-resistant. As to the kind of experiment: Rhipicephalus (Boophilus) microplus dip test. Conditions: 168 h, application rate 100 ppm, egg deposition after 7 days, read-out: activity (efficacy: infertile eggs). The method, then:
Rhipicephalus (Boophilus) microplus—Din Test
Test animal: cattle ticks (Rhipicephalus microplus) strain Parkhurst, SP-resistant
Solvent: dimethyl sulfoxide
To produce a suitable preparation of active compound, 10 mg of active compound are dissolved in 0.5 mL solvent, and the concentrate is diluted with water to the desired concentration.
This compound solution is pipetted into tubes. 8-10 engorged, adult, female cattle ticks (Rhipicephalus microplus) are placed in perforated tubes. These tubes are immersed in the aqueous compound solution until the ticks are completely moistened. After the liquid has drained off, the ticks are transferred to a filter paper in a plastic tray and stored in a climate chamber.
After 7 days egg deposition of fertile eggs is monitored. Eggs where fertility is not visible are stored in a climate chamber till hatching after about 42 days. An efficacy of 100% means all eggs are infertile; 0% means all eggs are fertile.

In the case of `C[C@H](NC(=O)c1cc(C(F)(F)F)cc(S(C)(=O)=O)c1)c1ncnn1-c1ncccn1` [II-13], the mortality at 4 mg/m2 in experiment [1], in experiment [2] and in experiment [4] was 80 to 100% each time. The mortality (commonly the share of the test organisms that died) at 100 g/ha in experiment [3] (application rate 100 g/ha) is 100%. For the same compound, the mortality at 500 g/ha in experiment [3] (application rate 500 g/ha) is 100%. Moreover, the pest or weed control at 4 pg in experiment [5] (application rate 4 pg/animal) amounted to 100%. Further, the pest or weed control at 0.02 mg in experiment [5] (application rate 20 μg/animal) was found to be 100%. Moreover, the mortality at 4 ppm in experiment [6] is 100%. In addition, the pest or weed control at 100 ppm in experiment [7] came to 100%.
